Test results taken from ChEMBL document CHEMBL6153095, “Dihydroaurones and Isoflavan Derivatives from the Roots of Glycyrrhiza asymmetrica” (J Nat Prod, 2025).
Activity calls are given as the source filed them.

How the values were obtained:
Type in all cases: functional, cell-based
[1] = test system: MCF7; assay: Cytotoxicity against human MCF7 cells assessed as reduction in cell viability at 10 uM by MTT assay
[2] = test system: HeLa; assay: Cytotoxicity against human HeLa cells assessed as reduction in cell viability at 10 uM by MTT assay
[3] = test system: A549; assay: Cytotoxicity against human A549 cells assessed as reduction in cell viability at 10 uM by MTT assay
[4] = test system: HepG2; assay: Cytotoxicity against human HepG2 cells assessed as reduction in cell viability at 10 uM by MTT assay

Measured: Activity

CC(C)=CCc1c(O)cc(O)cc1/C=C/c1ccc(O)cc1
inactive: [1] | [2] | [3] | [4]

CC(C)=CCc1c(O)ccc([C@@H]2COc3c(ccc(O)c3CC=C(C)C)C2)c1O
inactive: [1] | [2] | [3] | [4]

CC1(C)CCc2c(ccc3c2OC[C@@H](c2ccc(O)cc2O)C3=O)O1
inactive: [1] | [2] | [3] | [4]

CC(C)=CCc1cc2c(cc1O)OC[C@H](c1ccc(O)cc1O)[C@@H]2c1cc2c(c(CC=C(C)C)c1O)OC[C@@H](c1ccc(O)cc1O)C2
inactive: [1] | [2] | [3] | [4]

COc1ccc([C@@H]2COc3c(ccc(O)c3CC=C(C)C)C2=O)c(O)c1
inactive: [1] | [2] | [3] | [4]

CC(C)=CCc1cc([C@@H]2CC(=O)c3ccc(O)cc3O2)ccc1O
inactive: [1] | [2] | [3] | [4]

CC(C)=CCc1c(O)ccc2c1OC[C@@H](c1ccc(O)cc1O)C2=O
inactive: [1] | [2] | [3] | [4]

COc1ccc([C@@H]2COc3cc(O)ccc3C2)c(O)c1
inactive: [1] | [2] | [3] | [4]

COc1cc(O)ccc1[C@H]1COc2cc(O)ccc2[C@H]1c1cc2c(c(CC=C(C)C)c1O)OC[C@@H](c1ccc(O)cc1O)C2
inactive: [1] | [2] | [3] | [4]

CC(C)=CCc1cc([C@H]2Oc3cc(O)cc(O)c3C(=O)[C@@H]2O)ccc1O
inactive: [1] | [2] | [3] | [4]

COc1ccc([C@H]2COc3c(ccc(O)c3CC=C(C)C)C2)c(O)c1
inactive: [1] | [2] | [3] | [4]

CC(C)=CCc1cc2c(cc1O)OC[C@H](c1ccc(O)cc1O)[C@@H]2c1cc([C@H]2COc3c(ccc(O)c3CC=C(C)C)C2)c(O)cc1O
inactive: [1] | [2] | [3] | [4]

CC(C)=CCc1cc([C@H]2Oc3cc(O)ccc3C(=O)[C@@H]2O)ccc1O
inactive: [1] | [2] | [3] | [4]

COc1ccc(-c2coc3c(CC=C(C)C)c(O)ccc3c2=O)cc1
inactive: [1] | [2] | [3] | [4]

CC(C)=CCc1c(O)ccc([C@@H]2COc3c(ccc(O)c3CC=C(C)C)C2=O)c1O
inactive: [1] | [2] | [3] | [4]

CC(C)=CCc1c(O)ccc2c1OC[C@H](c1ccc(O)cc1O)C2
inactive: [1] | [2] | [3] | [4]

COc1ccc(-c2coc3cc(O)ccc3c2=O)cc1
inactive: [1] | [2] | [3] | [4]

CC(C)=CCc1c(O)ccc2c1OC[C@H](c1cc([C@@H]3c4ccc(O)c(CC=C(C)C)c4OC[C@@H]3c3ccc(O)cc3O)c(O)cc1O)C2
inactive: [1] | [2] | [3] | [4]

CC(C)(O)CCc1c(O)ccc2c1OC[C@H](c1ccc(O)cc1O)C2
inactive: [1] | [2] | [3] | [4]

CC1(C)CCc2c(ccc3c2OC[C@@H](c2ccc(O)cc2O)C3)O1
inactive: [1] | [2] | [3] | [4]

COc1ccc(C2COc3cc4c(cc3C2)C=CC(C)(C)O4)c(O)c1 (configuration not stated)
inactive: [1] | [2] | [3] | [4]

O=C(O)/C=C1/c2ccc(O)cc2O[C@@H]1Cc1ccc(O)cc1
inactive: [1] | [2] | [3] | [4]

COc1ccc(C[C@H]2Oc3cc(O)ccc3/C2=C/C(=O)O)cc1
inactive: [1] | [2] | [3] | [4]
